Test results as given in US6288080A, “Magnesium quinolone antibiotics” (priority 1998, dated 2001).

What was measured:
[1] = Aqueous solubility of the quinolone and its crystal forms; type: physicochemical; settings: for solubility of crystal form: depending upon the crystal form
From the text: The compounds disclosed in U.S. Pat. No. 5,563,155, ('155) are incorporated by reference here to fully disclose and enable this invention. The following compounds of the '155 patent are pointed out and particularly incorporated here. […] More particularly disclosed by incorporation by reference are those compounds of '155, in claim 1, where R2 is H and where R or R' is H. The quinolone where R2 is H and where R or R' is H can be combined with Mg2+ ions to produce a soluble complex having reduced injection site irritation. More preferred are the compounds of '155, in claim 1, where R2 is H and where R or R' is H, and where R3 is H and X is C--O--CH3. The esters of these compounds are also disclosed herein, the carboxy esters of 1-8 carbon groups are disclosed here, including all isomeric combinations (CH3, C2 H5, C3 H7, C4 H9, C5 H11, C6 H13, C7 H15, C8 H17 -- both straight and branched chains) and especially preferred are the carboxy esters of 1-4 carbon groups such as in U.S. Pat. No. 5,563,155, claim 1, where R2 is an alkyl of 1-4 carbon atoms or a cation. Even more preferred are the compounds of claim 2, most particularly the compound of claim 8 or 3R,1S-1-cyclopropyl-7-(3-(1-(methylamino)ethyl)-1-pyrrolidinyl)-6-fluoro-1,4-dihydro-8-methoxy-4-oxo-3-quinolinecarboxylic acid. […] Also, particular attention is directed to the descriptions in the specification of the '155 patent that correspond or are relevant to those claims and compounds described here.
The quinolones mentioned above can exist in different forms, the different forms having different solubilities. […] Even though it is the less soluble crystal form, Form III is very suitable as the quinolone that may be combined with Mg2+ in this invention. See, WO96/16055, incorporated by reference.
The compounds that may be made into solutions of this type are those compounds disclosed in Formula 1 and in U.S. Pat. No. 5,563,155, incorporated herein by reference and particularly 3R,1S-1-cyclopropyl-7-(3-(1-(methylamino)ethyl)-1-pyrrolidinyl)-6-fluoro-1,4-dihydro-8-methoxy-4-oxo-3-quinolinecarboxylic acid. […]

[2] = Serum depletion profile of 14C-quinolone with and without magnesium; type: in vivo, Holstein calves; settings: single subcutaneous, approximately 10 mg/kg
Experimental: (§1) Experiment 7. The determination of preliminary residue depletion profile in calves following subcutaneous administration of 14C-quinolone with and without magnesium.
(§2) Formulations: Radiolabeled quinolone was combined with unlabeled quinolone to yield solutions containing quinolone at 50 mg/mL with a specific activity of 2.25 uCi/mg. Solution 1: 4.92 g of unlabeled quinolone and 11.26 mCi 14C-quinolone were dissolved in 0.16 M HCl, the solution was titrated to pH 4-5 with 1 M NaOH and diluted with deionized water to a final volume of 100 mL. Solution 2: 4.92 g of unlabeled quinolone and 11.26 mCi 14C-quinolone were dissolved in 0.24 M MgCl2 --6H2 O and diluted to 100 mL with deionized water.
(§3) Treatment Groups: Ten (male and female) Holstein calves approximately 50-85 kg were used. Each animal was injected with a single subcutaneous injection (approximately 0.2 mL dose solution/kg body weight). The dose level was approximately 10 mg/kg (22.5 uCi/kg) body weight. Whole blood samples (approximately 50 mL) were collected from each animal at 0.5, 1, 1.5, 2, 2.5, 3, 6, 12, 24, and 48 h after dosing or until euthanasia. Following euthanasia, fat, muscle, lung, kidney, liver and injection site tissue samples (approximately 500 g) were collected. Blood and tissue samples were combusted and drug residue determined by liquid scintillation counting.

[3] = Total 14C-quinolone tissue residue depletion; type: in vivo, Holstein calves; settings: for Total 14C-quinolone residues at injection site / Total 14C-quinolone residues in fat / Total 14C-quinolone residues in kidneys / Total 14C-quinolone residues in liver / Total 14C-quinolone residues in lungs / Total 14C-quinolone residues in muscle: 10 mg/kg
Experimental: as §1, §2, §3

[4] = Injection site reaction after subcutaneous injection in animals (general statement); type: in vivo; settings: without Mg2+
From the text: Unfortunately these compounds also produce a severe adverse reaction at the injection site when injected subcutaneously in animals.

## CN[C@@H](C)[C@@H]1CCN(c2c(F)cc3c(=O)c(C(=O)O)cn(C4CC4)c3c2OC)C1 [Form 1, 3R,1S-1-cyclopropyl-7-(3-(1-(methylamino)ethyl)-1-pyrrolidinyl)-6-fluoro-1,4-dihydro-8-methoxy-4-oxo-3-quinolinecarboxylic acid]
[1]
  solubility of crystal form: about 10.8 mg/ml

## CN[C@@H](C)[C@@H]1CCN(c2c(F)cc3c(=O)c(C(=O)O)cn(C4CC4)c3c2OC)C1 [Form 3, 3R,1S-1-cyclopropyl-7-(3-(1-(methylamino)ethyl)-1-pyrrolidinyl)-6-fluoro-1,4-dihydro-8-methoxy-4-oxo-3-quinolinecarboxylic acid]
[1]
  solubility of crystal form: about 2.2 mg/ml

## CN[C@@H](C)[C@@H]1CCN(c2c(F)cc3c(=O)c(C(=O)O)cn(C4CC4)c3c2OC)C1 [QFB, [S-(R*,S*)]-1-Cyclopropyl-6-fluoro-1,4-dihydro-8-methoxy-7-[3-[1-(methylamino)ethyl]-1-pyrrolidinyl]-4-oxo-3-quinolinecarboxylic acid]
[1]; 25° C.
  estimated intrinsic solubility: about 2.2 mg/ml
[2]; 1 hour
  serum concentration at 1 hour: 30400 ng/mL
[2]; 48 hours
  serum concentration after 48 hours: 1000 ng/mL
[3]; 3 hr
  Total 14C-quinolone residues at injection site: 10,482 μg/g
  Total 14C-quinolone residues in fat: 45.4 µg/g
  Total 14C-quinolone residues in kidneys: 353.2 µg/g
  Total 14C-quinolone residues in liver: 215.5 µg/g
  Total 14C-quinolone residues in lungs: 146.8 µg/g
  Total 14C-quinolone residues in muscle: 50.1 µg/g
[3]; 6 hr
  Total 14C-quinolone residues at injection site: 12,382 μg/g
  Total 14C-quinolone residues in fat: 16.8 µg/g
  Total 14C-quinolone residues in kidneys: 234.1 µg/g
  Total 14C-quinolone residues in liver: 147.2 µg/g
  Total 14C-quinolone residues in lungs: 96.6 µg/g
  Total 14C-quinolone residues in muscle: 38.4 µg/g
[3]; 12 hr
  Total 14C-quinolone residues at injection site: 1,737 μg/g
  Total 14C-quinolone residues in fat: 7.8 µg/g
  Total 14C-quinolone residues in kidneys: 121.3 µg/g
  Total 14C-quinolone residues in liver: 110.9 µg/g
  Total 14C-quinolone residues in lungs: 53.1 µg/g
  Total 14C-quinolone residues in muscle: 24.3 µg/g
[3]; 24 hr
  Total 14C-quinolone residues at injection site: 932.5 µg/g
  Total 14C-quinolone residues in fat: 13.9 µg/g
  Total 14C-quinolone residues in kidneys: 90.3 µg/g
  Total 14C-quinolone residues in liver: 59.5 µg/g
  Total 14C-quinolone residues in lungs: 27.6 µg/g
  Total 14C-quinolone residues in muscle: 9.4 µg/g
[3]; 48 hr
  Total 14C-quinolone residues at injection site: 225.7 µg/g
  Total 14C-quinolone residues in fat: 1.7 µg/g
  Total 14C-quinolone residues in kidneys: 15.0 µg/g
  Total 14C-quinolone residues in liver: 13.4 µg/g
  Total 14C-quinolone residues in lungs: 4.8 µg/g
  Total 14C-quinolone residues in muscle: 1.4 µg/g
[3]; single subcutaneous, approximately 10 mg/kg
  injection site concentration of QFB: 10,480 ug/g
[4]
  adverse reaction at injection site: dramatic swelling, discoloration, internal and external lesions and even necrosis
